Test results reported in patent US20250332158A1, “COMPOSITION FOR PROMOTING MITOPHAGY ACTIVITY COMPRISING ISOQUINOLINE DERIVATIVE COMPOUND AS ACTIVE INGREDIENT AND USE THEREOF” (ALTMEDICAL CO., LTD., priority 2022, published 2025).
Entries after “also recorded” stand apart in the source; their conditions may differ. Read-outs that look alike come from different tables or passages of the source.

Assays:
[1] = test system: human normal lung cell line BEAS-2B; experiment: mitophagy activity by mt-Keima (mitokeyma) fluorescent protein quantification, flow cytometry; type: cell-based; details: for mitophagy activity compared to the con group / concentration showing maximum mitophagy activity: BEAS-2B; for mitophagy activity compared to the con group: 20 µM, 24 hours, flow cytometer (FIG. 2A); for concentration showing maximum mitophagy activity: concentration series (FIG. 2B); for times higher mitophagy activity than CD1-012: from concentrations of maximum mitophagy activity
Description: By utilizing these characteristics, mt-Keima can be expressed specifically in mitochondria, and by performing integrated analysis of the fluorescence signals at 458 nm and 561 nm, the fluorescence signal can be analyzed when mitochondria in a neutral environment (pH=7.4-7.8) are converted to an acidic environment (pH=4.5) by lysosomes delivered from mitophagy, allowing for quantitative measurement of mitophagy activity.
Specifically, a mitokeyma fluorescent protein quantification method, which allows for the quantitative measurement of mitophagy activity in living cells, was used. […] After treatment, the activity of mitophagy was measured using a flow cytometer. As a negative control, a control group (Control, con) without compound treatment was used, and as a positive control, CCCP (10 μM), which experimentally induces mitophagy activity, and CD1-012, a precursor of the compound of the present disclosure known to induce mitophagy activity, were used.

[2] = test system: human normal lung cell line BEAS-2B; experiment: colony forming assay (cytotoxicity); type: cell-based
Description: A colony forming assay was performed to confirm the cytotoxicity of the novel isoquinoline derivatives of the present disclosure. Specifically, the isoquinoline derivatives were treated to the human normal lung cell line BEAS-2B for 24 hours, followed by culturing for 2 weeks to analyze the colony formed. As controls, a control group (con) that was not treated with anything and a positive control treated with CCCP, which induces mitophagy activity but also causes mitochondrial dysfunction and toxicity, were used.

COc1ccc2c(Cc3ccccc3)c3[n+](cc2c1OC)CCc1cc2c(cc1-3)OCO2 [CD1-404]
mitophagy activity compared to the con group [1]: promote the activity of mitophagy

COc1ccc2c(c1OC)CN1CCc3cc4c(cc3C1=C2)OCO4 [CD1-363]
mitophagy activity compared to the con group [1]: promote the activity of mitophagy

C=CCc1c2[n+](cc3c(OC)c(OC)ccc13)CCc1cc3c(cc1-2)OCO3 [CD1-386]
mitophagy activity compared to the con group [1]: best mitophagy activity promotion; also recorded: promote the activity of mitophagy
concentration showing maximum mitophagy activity [1]: 5 µM
times higher mitophagy activity than CD1-012 [1]: 4 times

CCc1c2[n+](cc3c(OC)c(OC)ccc13)CCc1cc3c(cc1-2)OCO3 [CD1-409]
mitophagy activity compared to the con group [1]: best mitophagy activity promotion; also recorded: promote the activity of mitophagy
concentration showing maximum mitophagy activity [1]: 10 µM
times higher mitophagy activity than CD1-012 [1]: 2 times

N#CC(C#N)=NNc1cccc(Cl)c1 [CCCP, reference compound]
size and number of colonies (cytotoxicity) [2]: decrease in both the size and number of colonies

Oc1cc2c(cc1O)C1=Cc3ccc(O)c(O)c3CN1CC2 [CD1-367]
mitophagy activity compared to the con group [1]: promote the activity of mitophagy
size and number of colonies (cytotoxicity) ([2]; BEAS-2B, treated 24 hours, cultured 2 weeks (FIG. 4)): except for CD1-367, did not exhibit cytotoxicity

Oc1cc2c(cc1O)-c1cc3ccc(O)c(O)c3c[n+]1CC2 [CD1-271]
mitophagy activity compared to the con group [1]: promote the activity of mitophagy
